These results are taken from patent US20260355325A1, “DIMER COMPOUNDS” (KESMALEA THERAPEUTICS LIMITED, priority 2023, published 2026).

One test deals with T1, BRD4 (Homo sapiens, UniProt O60885).
T1 construct: Flp-In LgBiT HEK293 cells; lytic luminescence degradation readout
Nature of the test: BRD4 HiBiT Assay (degradation of endogenous BRD4 in HiBiT knock-in Flp-In LgBiT HEK293 cells). In kind it is cell-based. The conditions noted are these: BRD4 degradation in cells at 6-hour timepoint. An excerpt: The purpose of the BRD4 HiBiT Assay was to assess the binding affinity of the dimer to BRD4 and subsequent protein degradation.
BRD4 HiBiT cells (Flp-In™ LgBiT and KI HiBiT) were generated by first creating a Flp-In™293 stable cell line, transfecting in the pFRT serial vector containing an integrated Flp recombination target (FRT) site (Thermo Fisher Scientific, Waltham, MA) to HEK293 cells (ATCC, Manassas, VA). The LgBiT expression sequence (Promega Corporation, Madison, WA) was then introduced into the genome via Flp recombinase-mediated DNA recombination at the FRT site. HiBiT sequence (Promega Corporation, Madison, WA) was then knocked in to the endogenous BRD4 protein in the Flp-In™ LgBiT HEK293 cells and successful clones verifying by sequencing. Work on BRD4 HiBiT cell line was performed under license from Promega Corporation (Madison, WA). Cells were maintained in DMEM (Invitrogen™, Waltham, MA) supplemented with 10% FBS (AusGeneX, Molendinar, Australia) and 1% penicillin/streptomycin (Invitrogen™, Waltham, MA) in a humidified incubator at 5% CO2, 37° C.
Compounds were dissolved in DMSO (10 mM), serially diluted from 10 mM to 1.5 nM, and pre-incubated for 2 hours. Exponentially growing cells were seeded at 1×10^4 cells per well of 384 well plate (Corning, New York #3570). Cells were treated with compound for 6 or 48 hours. Following treatment, Nano-Glo® HiBiT Lytic Detection reagent (Promega Corporation, Madison, WA) was added according to manufacturer's instructions, and signal read using BMG CLARIOstar plate reader (BMG Labtech, Ortenburg, Germany). Each data point was performed in duplicate for every experiment. A DC50 value was calculated from linear regression analysis of the plots.
As to `Cc1ncsc1-c1ccc([C@H](C)NC(=O)[C@@H]2C[C@@H](O)CN2C(=O)[C@H](c2cc(OCc3ccccc3B3O[C@@H]4[C@H]5CC[C@H](C5)[C@]4(CCCNC(=O)C[C@@H]4N=C(c5ccc(Cl)cc5)c5c(sc(C)c5C)-n5c(C)nnc54)O3)no2)C(C)C)cc1` (single isomer, unassigned) [Example 9], the DC50 is less than 100 nM.

As for `Cc1sc2c(c1C)C(c1ccc(Cl)cc1)=N[C@@H](CC(=O)NCC[C@]13OB(c4ccccc4CCCC(=O)Nc4cccc5c4C(=O)N(C4CCC(=O)NC4=O)C5=O)O[C@H]1C[C@H]1C[C@@H]3C1(C)C)c1nnc(C)n1-2` (mixture of isomers) [Example 4, 4-(2-((3aR,4R,6R,7aS)-3a-(2-(2-((S)-4-(4-chlorophenyl)-2,3,9-trimethyl-6H-thieno[3,2-f][1,2,4]triazolo[4,3-a][1,4]diazepin-6-yl)acetamido)ethyl)-5,5-dimethylhexahydro-4,6-methanobenzo[d][1,3,2]dioxaborol-2-yl)phenyl)-N-(2-(2,6-dioxopiperidin-3-yl)-1,3-dioxoisoindolin-4-yl)butanamide], the DC50 is less than 100 nM.

The same test, now with this note: BRD4 degradation in cells at 48-hour timepoint.
Regarding `Cc1cc(C(C(=O)N2C[C@H](O)C[C@H]2C(=O)NCc2ccc(Cl)cc2OC[C@]23OB(c4ccccc4CCNC(=O)C[C@@H]4N=C(c5ccc(Cl)cc5)c5c(sc(C)c5C)-n5c(C)nnc54)O[C@H]2C[C@H]2C[C@@H]3C2(C)C)C(C)C)on1` (single isomer, unassigned) [Example 11], the 50% degradation concentration (DC50) is 1000 to 10000 nM.

For the next test, the target named is T2, BTK (Homo sapiens, UniProt Q06187).
T2 construct: immunofluorescence degradation readout, 48 h
T2 sequence (Q06187 whole entry): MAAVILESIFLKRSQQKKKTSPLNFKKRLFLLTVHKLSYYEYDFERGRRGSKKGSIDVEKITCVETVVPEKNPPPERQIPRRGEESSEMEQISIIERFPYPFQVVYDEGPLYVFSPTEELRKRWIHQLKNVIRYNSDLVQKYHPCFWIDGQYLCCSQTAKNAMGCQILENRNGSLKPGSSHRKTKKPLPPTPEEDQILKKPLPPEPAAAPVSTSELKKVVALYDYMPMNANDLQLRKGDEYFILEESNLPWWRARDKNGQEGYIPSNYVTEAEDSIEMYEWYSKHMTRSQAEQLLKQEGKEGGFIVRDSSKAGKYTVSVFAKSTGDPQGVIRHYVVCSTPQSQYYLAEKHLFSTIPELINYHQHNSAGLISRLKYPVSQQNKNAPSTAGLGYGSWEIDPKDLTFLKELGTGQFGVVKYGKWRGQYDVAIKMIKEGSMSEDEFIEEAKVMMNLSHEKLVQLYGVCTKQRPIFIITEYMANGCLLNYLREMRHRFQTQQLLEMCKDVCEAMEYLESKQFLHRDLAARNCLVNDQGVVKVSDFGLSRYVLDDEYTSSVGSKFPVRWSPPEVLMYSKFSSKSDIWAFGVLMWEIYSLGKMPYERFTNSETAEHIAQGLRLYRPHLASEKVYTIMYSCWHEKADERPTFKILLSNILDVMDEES
In words: BTK IFA Assay (BTK degradation in OCI-Ly10 cells). In kind it is cell-based. The conditions noted are these: BTK degradation in OCI-Ly10 cells at 48-hour timepoint. The method, then:
The purpose of the BTK Assays were to assess the binding affinity of the dimer to BTK and subsequent protein degradation.
OCI-Ly10 cells were obtained from CoBioer Biosciences Co. Ltd, Shanghai, China, and maintained in IMDM (Invitrogen™, Waltham, MA) supplemented with 20% FBS (AusGeneX, Molendinar, Australia) and 1%, penicillin/streptomycin (Invitrogen™, Waltham, MA) in a humidified incubator at 5% CO2, 37° C.
Compounds were dissolved in DMSO (10 mM), serially diluted from 10 mM to 1.5 nM, and pre-incubated for 2 hours. Exponentially growing cells were seeded at 8×10^3 cells per well of 384 well plate (Corning, New York #356663). Cells were treated with compound for 48 hours. Following treatment, cells were fixed with 4% PFA (SolarBio Lifescience, Beijing, China) for 20 minutes, permeabilised in 100% ice-cold methanol (Merck, Darmstadt, Germany) for 10 minutes, and blocked with blocking buffer (LI-COR Biosciences Lincoln, NE) for 90 minutes.
Cells were incubated with primary BTK antibody (CST #8547 Danvers, MA) at 1:1000 dilution overnight in blocking buffer (LI-COR, Lincoln, NE) at 4° C. Cells were washed in DPBS (Thermo Fisher Scientific, Waltham, MA) and incubated with secondary antibody AlexaFluor 488 goat anti rabbit (Invitrogen™ #A-11008 Waltham, MA) 1:1000 dilution, with Hoechst stain (Invitrogen™ Waltham, MA) 1:5000 dilution in blocking buffer (LI-COR Biosciences, Lincoln, NE) for 90 minutes. After final DPBS wash, 200 ul of DPBS was added to the cells, and signal read on Operetta (Revvity, Waltham, MA). Each data point was performed in duplicate for every experiment. A DC50 value was calculated from linear regression analysis of the plots.
As to `Cc1ccc(C(=O)N(C)CCCOc2cccc3c2CN(C2CCC(=O)NC2=O)C3=O)cc1B1O[C@H]2C[C@H]3C[C@H](C3(C)C)[C@@]2(CCOCC(=O)N2CCC(n3nc(-c4ccc(Oc5ccccc5)cc4)c4c(N)ncnc43)CC2)O1` (mixture of isomers) [Example 19, 3-((3aR,4R,6R,7aS)-3a-(2-(2-(4-(4-amino-3-(4-phenoxyphenyl)-1H-pyrazolo[3,4-d]pyrimidin-1-yl)piperidin-1-yl)-2-oxoethoxy)ethyl)-5,5-dimethylhexahydro-4,6-methanobenzo[d][1,3,2]dioxaborol-2-yl)-N-(3-((2-(2,6-dioxopiperidin-3-yl)-1-oxoisoindolin-4-yl)oxy)propyl)-N,4-dimethylbenzamide], the DC50 fell in the range of 500 to 1000 nM.

On to `Cc1cc(C(=O)N(C)CCOc2cccc3c2CN(C2CCC(=O)NC2=O)C3=O)ccc1B1O[C@H]2C[C@H]3C[C@H](C3(C)C)[C@@]2(CCOCC(=O)N2CCC(n3nc(-c4ccc(Oc5ccccc5)cc4)c4c(N)ncnc43)CC2)O1` (mixture of isomers) [Example 20, 4-((3aR,4R,6R,7aS)-3a-(2-(2-(4-(4-amino-3-(4-phenoxyphenyl)-1H-pyrazolo[3,4-d]pyrimidin-1-yl)piperidin-1-yl)-2-oxoethoxy)ethyl)-5,5-dimethylhexahydro-4,6-methanobenzo[d][1,3,2]dioxaborol-2-yl)-N-(2-((2-(2,6-dioxopiperidin-3-yl)-1-oxoisoindolin-4-yl)oxy)ethyl)-N,3-dimethylbenzamide], for which the DC50 lay in the range of 1000 to 10000 nM.

`Cc1cc(C(=O)NCCC#Cc2cccc3c2CN(C2CCC(=O)NC2=O)C3=O)ccc1B1O[C@H]2C[C@H]3C[C@H](C3(C)C)[C@@]2(CCOCCN2CCC(n3nc(-c4ccc(Oc5ccccc5)cc4)c4c(N)ncnc43)CC2)O1` (mixture of isomers) [Example 15, 4-((3aR,4R,6R,7aS)-3a-(2-(2-(4-(4-amino-3-(4-phenoxyphenyl)-1H-pyrazolo[3,4-d]pyrimidin-1-yl)piperidin-1-yl)ethoxy)ethyl)-5,5-dimethylhexahydro-4,6-methanobenzo[d][1,3,2]dioxaborol-2-yl)-N-(4-(2-(2,6-dioxopiperidin-3-yl)-1-oxoisoindolin-4-yl)but-3-yn-1-yl)-3-methylbenzamide] came in with a DC50 of 100 to 500 nM.

Compound `Cc1cc(C(=O)N(C)CCCOc2ccc3c(c2)n(C)c(=O)n3C2CCC(=O)NC2=O)ccc1B1O[C@H]2C[C@H]3C[C@H](C3(C)C)[C@@]2(CCOCC(=O)N2CCC(n3nc(-c4ccc(Oc5ccccc5)cc4)c4c(N)ncnc43)CC2)O1` (mixture of isomers) [Example 16, 4-((3aR,4R,6R,7aS)-3a-(2-(2-(4-(4-amino-3-(4-phenoxyphenyl)-1H-pyrazolo[3,4-d]pyrimidin-1-yl)piperidin-1-yl)-2-oxoethoxy)ethyl)-5,5-dimethylhexahydro-4,6-methanobenzo[d][1,3,2]dioxaborol-2-yl)-N-(3-((1-(2,6-dioxopiperidin-3-yl)-3-methyl-2-oxo-2,3-dihydro-1H-benzo[d]imidazol-5-yl)oxy)propyl)-N,3-dimethylbenzamide] gave a DC50 of 500 to 1000 nM.

`Cc1cc(C(=O)NCCC#Cc2cccc3c2CN(C2CCC(=O)NC2=O)C3=O)ccc1B1O[C@H]2C[C@H]3C[C@H](C3(C)C)[C@@]2(CCOCC(=O)N2CCC(n3nc(-c4ccc(Oc5ccccc5)cc4)c4c(N)ncnc43)CC2)O1` (mixture of isomers) [Example 17, 4-((3aR,4R,6R,7aS)-3a-(2-(2-(4-(4-amino-3-(4-phenoxyphenyl)-1H-pyrazolo[3,4-d]pyrimidin-1-yl)piperidin-1-yl)-2-oxoethoxy)ethyl)-5,5-dimethylhexahydro-4,6-methanobenzo[d][1,3,2]dioxaborol-2-yl)-N-(4-(2-(2,6-dioxopiperidin-3-yl)-1-oxoisoindolin-4-yl)but-3-yn-1-yl)-3-methylbenzamide]: the DC50 was 100 to 500 nM.

Turning to `Cc1cc(C(=O)N(C)CCCOc2cccc3c2CN(C2CCC(=O)NC2=O)C3=O)ccc1B1O[C@H]2C[C@H]3C[C@H](C3(C)C)[C@@]2(CCOCC(=O)N2CCC(n3nc(-c4ccc(Oc5ccccc5)cc4)c4c(N)ncnc43)CC2)O1` (stereo partly drawn) [Example 18, 4-((3aR,4R,6R,7aS)-3a-(2-(2-(4-(4-amino-3-(4-phenoxyphenyl)-1H-pyrazolo[3,4-d]pyrimidin-1-yl)piperidin-1-yl)-2-oxoethoxy)ethyl)-5,5-dimethylhexahydro-4,6-methanobenzo[d][1,3,2]dioxaborol-2-yl)-N-(3-((2-(2,6-dioxopiperidin-3-yl)-1-oxoisoindolin-4-yl)oxy)propyl)-N,3-dimethylbenzamide], the DC50 was in the range of 500 to 1000 nM.

As to `Cc1cc(C(=O)N(C)CCCOc2ccc3c(c2)n(C)c(=O)n3C2CCC(=O)NC2=O)ccc1B1O[C@H]2C[C@H]3C[C@H](C3(C)C)[C@@]2(CCOCCN2CCC(n3nc(-c4ccc(Oc5ccccc5)cc4)c4c(N)ncnc43)CC2)O1` (stereo partly drawn) [Example 14, 4-((3aR,4R,6R,7aS)-3a-(2-(2-(4-(4-amino-3-(4-phenoxyphenyl)-1H-pyrazolo[3,4-d]pyrimidin-1-yl)piperidin-1-yl)ethoxy)ethyl)-5,5-dimethylhexahydro-4,6-methanobenzo[d][1,3,2]dioxaborol-2-yl)-N-(3-((1-(2,6-dioxopiperidin-3-yl)-3-methyl-2-oxo-2,3-dihydro-1H-benzo[d]imidazol-5-yl)oxy)propyl)-N,3-dimethylbenzamide], the DC50 lay in the range of 100 to 500 nM.
